Reference: patent US6432381B1, “Methods for targeting drug delivery to the upper and/or lower gastrointestinal tract” (Elan Pharma International Limited, priority 1994, dated 2002)

What was measured:
[1] = Particle size determination; type: physicochemical; conditions: wet grinding
Experimental: As used herein, particle size is determined on the basis of weight average particle size as measured by conventional particle size measuring techniques well known to those skilled in the art, such as sedimentation field flow fractionation, photon correlation spectroscopy, or disk centrifugation. […] By “effective particle size” is meant that at least 90% of the particles in the sample measured by the above-noted weight sizing techniques have a particle size less than the stated size.
The particle size was determined during the milling process and again immediately before the suspensions were administered. Particle size was determined on the Coulter Model N4MD Submicron Particle Analyzer (Coulter Corp.; Miami Lakes, Fla.); and using the Microtrac Ultrafine Particle Analyzer (Leeds and Northrup Co.; St. Petersburg, Fla.).

[2] = Table 3
[3] = test system: GI tract; experiment: X-ray diagnostic imaging of mucoadhesion in the GI tract (rats); type: in vivo
Experimental: (§1) The amount and site of the mucoadhesion was determined by x-ray diagnostic imaging. The imaging was performed in anesthetized rats with the exception of G05-R1 samples which were imaged in fasted and anesthetized ferrets. Images were obtained using the Siemens C-Arm Siremobil 3U x-ray unit. The imaging dose was 10 ml/kg administered via gastric intubation to the anesthetized animal. X-rays were taken at 15, 30, 45 and 60 minutes and at 1, 2, 5 and 24 hours post-dose. A 10-15 ml volume of air was introduced to the animal at 30 minutes to produce a double contrast image.
(§2) Images were evaluated by the criteria of: coating, homogeneity, rate of gastric emptying and the total transit time. These are considered to be a measure of the stability of the suspension during transit down the GI tract and the ability of the formulation to adhere to the lower gastrointestinal tract. Suspensions were rated excellent when there was a uniform coating with transradiation of long intestinal segments, sufficient radiodensity to delineate anatomical structure, rapid emptying and transit, and stability and homogeneity during GI transit. A plus sign (+) was assigned when imaging in the lower GI was exceptional, a minus sign (−) as given when it was not. […]

[4] = test system: GI tract; experiment: X-ray diagnostic imaging of mucoadhesion in the GI tract (ferrets); type: in vivo; conditions: suspension milled in Pluronic F127
Experimental: as §1, §2

Q: With `COc1ccc2cc([C@H](C)C(=O)O)ccc2c1` [naproxen] as the compound, how does the “Particle Size Weight Average” value ([1]; naproxen 5%, poloxamer F-68 3.0%) read?
A: 270 nm

Q: Which results are given for `COc1ccc2c(c1)c(CC(=O)O)c(C)n2C(=O)c1ccc(Cl)cc1` [indomethacin]?
A: Particle Size Weight Average ([1]; indomethacin 5%, poloxamer F-68 1%): 228 nm; Particle Size Weight Average ([1]; indomethacin 5%, poloxamer F-68 2.5%): 193 nm

Q: Which “Particle Size Weight Average” value ([1]; busulfan 2%, poloxamer F-108 0.5%) does the source give for `CS(=O)(=O)OCCCCOS(C)(=O)=O` [busulfan] here?
A: 387 nm

Q: Which “Particle Size Weight Average” value ([1]; phenytoin 5%, poloxamer F-68 2.5%) does the source give for `O=C1NC(=O)C(c2ccccc2)(c2ccccc2)N1` [phenytoin] here?
A: 385 nm

Q: And the “Particle Size Weight Average” value ([1]; phenytoin 5%, poloxamer F-108 2.5%)?
A: 385 nm

Q: And the “Particle Size Weight Average” value ([1]; phenytoin 5%, poloxamer F-127 2.5%)?
A: 431 nm

Q: Which results are given for `CN(Cc1cnc2nc(N)nc(N)c2n1)c1ccc(C(=O)N[C@@H](CCC(=O)O)C(=O)O)cc1` [methotrexate]?
A: Particle Size Weight Average ([1]; methotrexate 5%, poloxamer F-68 2.5%): 196 nm; Particle Size Weight Average ([1]; methotrexate 5%, poloxamer F-127 2.5%): 248 nm

Q: Which “Aqueous Solubility” value [2] does the source give for `CCOC(=O)c1c(I)c(NC(C)=O)c(I)c(NC(C)=O)c1I` [WIN 8883, ethyl 3,5-bis(acetylamino)-2,4,6-triodobenzoate] here?
A: <5 µg/mL

Q: And the “Upper and lower GI imaging rating” value ([3]; suspension milled in/stabilized with Pluronic F127, rats)?
A: excellent

Q: What about the GI imaging rating ([3]; suspension stabilized with F88, for the upper GI only) of the same compound?
A: excellent

Q: And the “Upper and lower GI imaging rating” value [4]?
A: excellent

Q: With `COC1=CC(=O)C[C@@H](C)[C@]12Oc1c(Cl)c(OC)cc(OC)c1C2=O` [griseofulvin] as the compound, how does the “Particle Size Weight Average” value ([1]; griseofulvin 5%, poloxamer F-68 2.5%) read?
A: 617 nm

Q: What about the “Particle Size Weight Average” value ([1]; griseofulvin 5%, poloxamer F-127 2.5%) of the same compound?
A: 617 nm

Q: For `CC[C@@]1(O)C(=O)OCc2c1cc1n(c2=O)Cc2cc3ccccc3nc2-1` [camptothecin], which “Particle Size Weight Average” value ([1]; camptothecin 2%, poloxamer F-68 2%) is on record?
A: 107 nm

Q: What about the “Particle Size Weight Average” value ([1]; camptothecin 2%, poloxamer F-108 1%) of the same compound?
A: 111 nm

Q: Which “Particle Size Weight Average” value ([1]; piposulfan 2%, poloxamer F-108 0.5%) does the source give for `CS(=O)(=O)OCCC(=O)N1CCN(C(=O)CCOS(C)(=O)=O)CC1` [piposulfan] here?
A: 339 nm

Q: For `CCC(=O)OCC(=O)[C@@]1(OC(=O)CC)[C@@H](C)C[C@H]2[C@@H]3CCC4=CC(=O)C=C[C@]4(C)[C@@]3(Cl)[C@@H](O)C[C@@]21C` [beclomethasone dipropionate], which “Particle Size Weight Average” value ([1]; beclomethasone dipropionate 5%, poloxamer F-68 2.5%) is on record?
A: 221 nm

Q: What about the “Particle Size Weight Average” value ([1]; beclomethasone dipropionate 5%, poloxamer F-127 2.5%) of the same compound?
A: 244 nm

Q: With `CC(C)Cc1ccc(C(C)C(=O)O)cc1` (centres unmarked) [ibuprofen] as the compound, how does the “Particle Size Weight Average” value ([1]; ibuprofen 3%, poloxamer F-68 2.0%) read?
A: 253 nm

Q: For `C[C@@H]1[C@H](O)[C@@H](C)/C=C/C=C/C=C/C=C/C=C/C=C/C=C/[C@H](O[C@@H]2O[C@H](C)[C@@H](O)[C@H](N)[C@@H]2O)C[C@@H]2O[C@](O)(C[C@@H](O)C[C@@H](O)[C@H](O)CC[C@@H](O)C[C@@H](O)CC(=O)O[C@H]1C)C[C@H](O)[C@H]2C(=O)O` [amphotericin B], which “Particle Size Weight Average” value ([1]; amphotericin B 5%, poloxamer F-68 2.5%) is on record?
A: 426 nm

Q: What about the “Particle Size Weight Average” value ([1]; amphotericin B 5%, poloxamer F-127 2.5%) of the same compound?
A: 510 nm
